Where a chain is given by its changes, count along the chain named. Read-outs that look alike come from different tables or passages of the source. Ends that are not written are not given here.
Key:
Assay in all cases: Holdup assay
Assay type in all cases: binding
SCRIB_3 PDZ = target: T1, SCRIB_3 PDZ (Homo sapiens, UniProt Q14160)
T1 sequence (Q14160 1004-1093 limits assumed): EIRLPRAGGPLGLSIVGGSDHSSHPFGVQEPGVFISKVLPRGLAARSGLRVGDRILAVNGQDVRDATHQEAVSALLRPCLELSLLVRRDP

DLG1_3 PDZ = DLG1_3 PDZ (Homo sapiens, UniProt Q12959)
DLG1_2 PDZ = DLG1_2 PDZ (Homo sapiens, UniProt Q12959)
DLG4_1 PDZ = DLG4_1 PDZ (Homo sapiens, UniProt P78352)
DLG3_2 PDZ = target: T2, DLG3_2 PDZ (Homo sapiens, UniProt Q92796)
T2 sequence (Q92796 226-311 limits assumed): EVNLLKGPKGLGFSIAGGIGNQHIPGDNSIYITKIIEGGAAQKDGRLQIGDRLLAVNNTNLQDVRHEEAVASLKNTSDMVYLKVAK

LIN7C PDZ = target: T3, LIN7C PDZ (Homo sapiens, UniProt Q9NUP9)
T3 sequence (Q9NUP9 93-175 limits assumed): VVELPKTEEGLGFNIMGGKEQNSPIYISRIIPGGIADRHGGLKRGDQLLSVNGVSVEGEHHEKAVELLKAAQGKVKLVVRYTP

MAGI2_4 PDZ = MAGI2_4 PDZ (Homo sapiens, UniProt Q86UL8)
LIN7B PDZ = target: T4, LIN7B PDZ (Homo sapiens, UniProt Q9HAP6)
T4 sequence (Q9HAP6 93-175 limits assumed): T3 sequence (Q9NUP9 93-175 limits assumed) with E8D, I30V, I35V, H60Q, K74S

ARHGEF11 PDZ = target: T5, ARHGEF11 PDZ (Homo sapiens, UniProt O15085)
T5 sequence (O15085 47-126 limits assumed): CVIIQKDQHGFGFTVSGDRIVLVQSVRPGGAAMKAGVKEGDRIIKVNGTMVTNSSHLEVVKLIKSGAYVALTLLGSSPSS

LAP2 PDZ = LAP2 PDZ (Homo sapiens, UniProt Q96RT1)
SNX27 PDZ = SNX27 PDZ (Homo sapiens, UniProt Q96L92); conditions: composite holdup affinity; 0.00=below quantification threshold; read-out: COMP pKd (converted)
DLG4_3 PDZ = DLG4_3 PDZ (Homo sapiens, UniProt P78352)
SNTG2 PDZ = target: T6, SNTG2 PDZ (Homo sapiens, UniProt Q9NY99)
T6 sequence (Q9NY99 73-156 limits assumed): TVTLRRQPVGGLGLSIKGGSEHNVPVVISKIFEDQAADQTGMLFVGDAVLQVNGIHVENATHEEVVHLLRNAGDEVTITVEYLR

SCRIB2 PDZ = target: T7, SCRIB2 PDZ (Homo sapiens, UniProt Q14160)
T7 sequence (Q14160 862-950 limits assumed): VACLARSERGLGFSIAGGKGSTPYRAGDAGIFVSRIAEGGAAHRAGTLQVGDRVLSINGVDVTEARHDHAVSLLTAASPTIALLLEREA

PDZRN4_1 PDZ = target: T8, PDZRN4_1 PDZ (Homo sapiens, UniProt Q6ZMN7)
T8 sequence (Q6ZMN7 224-314 limits assumed): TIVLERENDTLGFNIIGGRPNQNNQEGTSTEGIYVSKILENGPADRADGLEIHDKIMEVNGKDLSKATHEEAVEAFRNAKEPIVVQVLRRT

NHERF3_1 PDZ = target: T9, NHERF3_1 PDZ (Homo sapiens, UniProt Q5T2W1)
T9 sequence (Q5T2W1 9-90 limits assumed): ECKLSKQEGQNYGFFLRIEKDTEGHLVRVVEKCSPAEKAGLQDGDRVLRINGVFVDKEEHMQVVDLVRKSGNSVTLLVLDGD

DLG3_1 PDZ = target: T10, DLG3_1 PDZ (Homo sapiens, UniProt Q92796)
T10 sequence (Q92796 130-217 limits assumed): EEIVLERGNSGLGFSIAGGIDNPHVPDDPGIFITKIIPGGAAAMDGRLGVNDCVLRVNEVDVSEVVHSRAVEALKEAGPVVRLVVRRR

DLG3_3 PDZ = target: T11, DLG3_3 PDZ (Homo sapiens, UniProt Q92796)
T11 sequence (Q92796 379-465 limits assumed): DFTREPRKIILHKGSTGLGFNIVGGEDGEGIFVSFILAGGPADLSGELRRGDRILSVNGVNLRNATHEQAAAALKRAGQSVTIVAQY

MAGI2_5 PDZ = MAGI2_5 PDZ (Homo sapiens, UniProt Q86UL8)
DLG2_3 PDZ = target: T12, DLG2_3 PDZ (Homo sapiens, UniProt Q15700)
T12 sequence (Q15700 421-501 limits assumed): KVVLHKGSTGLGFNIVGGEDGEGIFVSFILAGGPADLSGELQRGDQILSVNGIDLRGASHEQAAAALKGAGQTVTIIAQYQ

DLG2_2 PDZ = DLG2_2 PDZ (Homo sapiens, UniProt Q15700)
MAGI3_2 PDZ = MAGI3_2 PDZ (Homo sapiens, UniProt Q5TCQ9)
TX1BP3 PDZ = target: T13, TX1BP3 PDZ (Homo sapiens, UniProt O14907)
T13 sequence (O14907 15-112 limits assumed): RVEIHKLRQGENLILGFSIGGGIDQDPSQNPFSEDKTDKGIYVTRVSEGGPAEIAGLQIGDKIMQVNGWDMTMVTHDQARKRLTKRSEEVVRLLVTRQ

ARHGEF12 PDZ = target: T14, ARHGEF12 PDZ (Homo sapiens, UniProt Q9NZN5)
T14 sequence (Q9NZN5 72-151 limits assumed): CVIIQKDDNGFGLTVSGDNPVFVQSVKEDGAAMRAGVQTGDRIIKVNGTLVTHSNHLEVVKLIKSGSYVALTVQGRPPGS

DLG1_1 PDZ = DLG1_1 PDZ (Homo sapiens, UniProt Q12959)
[1] = composite holdup affinity, 0.00=below quantification threshold, read-out: COMP pKd (converted)

Chain of DLG4_3 PDZ (P78352 313-393 limits assumed): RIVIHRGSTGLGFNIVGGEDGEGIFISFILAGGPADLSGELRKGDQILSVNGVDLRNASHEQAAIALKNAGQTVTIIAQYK
Chain of MAGI3_2 PDZ (Q5TCQ9 410-492 limits assumed): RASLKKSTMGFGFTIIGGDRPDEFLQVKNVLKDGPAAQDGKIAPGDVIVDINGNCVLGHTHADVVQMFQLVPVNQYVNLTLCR
Chain of MAGI2_5 PDZ (Q86UL8 920-1010 limits assumed): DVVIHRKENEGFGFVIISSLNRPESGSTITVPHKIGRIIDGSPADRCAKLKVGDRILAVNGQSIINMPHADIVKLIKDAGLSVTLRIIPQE
Chain of DLG2_2 PDZ (Q15700 193-279 limits assumed): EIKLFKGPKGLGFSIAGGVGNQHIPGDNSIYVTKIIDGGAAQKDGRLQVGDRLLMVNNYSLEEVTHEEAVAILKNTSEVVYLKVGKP
Chain of MAGI2_4 PDZ (Q86UL8 778-860 limits assumed): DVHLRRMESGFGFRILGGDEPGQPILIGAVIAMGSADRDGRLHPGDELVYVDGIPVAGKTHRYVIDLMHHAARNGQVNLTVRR
Chain of DLG4_1 PDZ (P78352 65-151): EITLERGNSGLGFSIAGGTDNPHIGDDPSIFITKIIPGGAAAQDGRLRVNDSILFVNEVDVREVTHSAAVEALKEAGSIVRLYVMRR
Chain of LAP2 PDZ (Q96RT1 1321-1410 limits assumed): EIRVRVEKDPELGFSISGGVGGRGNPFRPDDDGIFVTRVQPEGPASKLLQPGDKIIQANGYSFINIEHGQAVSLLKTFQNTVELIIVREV

SKPTRRETEV [HPV35-E6]
Kd (SCRIB_3 PDZ; [1]): 12.9 µM
Kd (DLG1_3 PDZ; [1]): 17 µM
Kd (DLG1_2 PDZ; [1]): 2290 nM
Kd (DLG4_1 PDZ; [1]): 8.13 µM
Kd (DLG3_2 PDZ; [1]): 3.24 µM
Kd (LIN7C PDZ; [1]): 174 µM
Kd (MAGI2_4 PDZ; [1]): 45.7 µM
Kd (LIN7B PDZ; [1]): 324 µM
Kd (ARHGEF11 PDZ; [1]): 77.6 µM
Kd (LAP2 PDZ; [1]): 204 µM
Kd (SNX27 PDZ): 21.9 µM
Kd (DLG4_3 PDZ; [1]): 6.31 µM
Kd (SNTG2 PDZ; [1]): 112 µM
Kd (SCRIB2 PDZ; [1]): 20 µM
Kd (PDZRN4_1 PDZ; [1]): 41.7 µM
Kd (NHERF3_1 PDZ; [1]): 91.2 µM
Kd (DLG3_1 PDZ; [1]): 35.5 µM
Kd (DLG3_3 PDZ; [1]): 6.61 µM
Kd (MAGI2_5 PDZ; [1]): 66.1 µM
Kd (DLG2_3 PDZ; [1]): 4.9 µM
Kd (DLG2_2 PDZ; [1]): 5.37 µM
Kd (MAGI3_2 PDZ; [1]): 4070 nM
Kd (TX1BP3 PDZ; [1]): 11.7 µM
Kd (ARHGEF12 PDZ; [1]): 87.1 µM
Kd (DLG1_1 PDZ; [1]): 9.55 µM

CC(C)C[C@H](NC(=O)[C@@H](N)CCCNC(=N)N)C(=O)N[C@@H](CCC(N)=O)C(=O)N[C@@H](CCCNC(=N)N)C(=O)N[C@@H](CCCNC(=N)N)C(=O)N[C@@H](CCCNC(=N)N)C(=O)N[C@@H](CCC(=O)O)C(=O)N[C@H](C(=O)N[C@@H](CCC(N)=O)C(=O)N[C@H](C(=O)O)C(C)C)[C@@H](C)O [HPV18-E6]
Kd (SCRIB_3 PDZ): 14.5 µM
Kd (DLG1_3 PDZ): 9.55 µM
Kd (DLG1_2 PDZ): 1660 nM
Kd (DLG4_1 PDZ): 7.76 µM
Kd (DLG3_2 PDZ): 3.47 µM
Kd (LIN7C PDZ): 67.6 µM
Kd (MAGI2_4 PDZ): 52.5 µM
Kd (LIN7B PDZ): 263 µM
Kd (ARHGEF11 PDZ): 219 µM
Kd (LAP2 PDZ): 245 µM
Kd (SNX27 PDZ): 28.2 µM
Kd (DLG4_3 PDZ): 1.82 µM
Kd (SNTG2 PDZ): 93.3 µM
Kd (SCRIB2 PDZ): 36.3 µM
Kd (PDZRN4_1 PDZ): 33.1 µM
Kd (NHERF3_1 PDZ): 89.1 µM
Kd (DLG3_1 PDZ): 45.7 µM
Kd (DLG3_3 PDZ): 3.63 µM
Kd (MAGI2_5 PDZ): 166 µM
Kd (DLG2_3 PDZ): 8.71 µM
Kd (DLG2_2 PDZ): 6.46 µM
Kd (MAGI3_2 PDZ): 2750 nM
Kd (TX1BP3 PDZ): 21.9 µM
Kd (ARHGEF12 PDZ): 123 µM
Kd (DLG1_1 PDZ): 5.5 µM

SRRPRTETQV [HPV31-E6]
Kd (SCRIB_3 PDZ; [1]): 27.5 µM
Kd (DLG1_3 PDZ; [1]): 25.1 µM
Kd (DLG1_2 PDZ; [1]): 1620 nM
Kd (DLG4_1 PDZ; [1]): 9.55 µM
Kd (DLG3_2 PDZ; [1]): 3.89 µM
Kd (LIN7C PDZ; [1]): 117 µM
Kd (MAGI2_4 PDZ; [1]): 33.1 µM
Kd (LIN7B PDZ; [1]): 209 µM
Kd (ARHGEF11 PDZ; [1]): 263 µM
Kd (LAP2 PDZ; [1]): 126 µM
Kd (SNX27 PDZ): 22.9 µM
Kd (DLG4_3 PDZ; [1]): 7.94 µM
Kd (SNTG2 PDZ; [1]): 83.2 µM
Kd (SCRIB2 PDZ; [1]): 41.7 µM
Kd (PDZRN4_1 PDZ; [1]): 64.6 µM
Kd (NHERF3_1 PDZ; [1]): 47.9 µM
Kd (DLG3_1 PDZ; [1]): 36.3 µM
Kd (DLG3_3 PDZ; [1]): 7.94 µM
Kd (MAGI2_5 PDZ; [1]): 129 µM
Kd (DLG2_3 PDZ; [1]): 7.94 µM
Kd (DLG2_2 PDZ; [1]): 4.27 µM
Kd (MAGI3_2 PDZ; [1]): 1350 nM
Kd (TX1BP3 PDZ; [1]): 24.5 µM
Kd (ARHGEF12 PDZ; [1]): 138 µM
Kd (DLG1_1 PDZ; [1]): 6.92 µM
